# Data taken from PMC8185074, “Anchor extension: a structure-guided approach to design cyclic peptides targeting enzyme active sites” (Nature Communications, 2021).
# Peptide text beside a SMILES is read from it.
# Legend:
# Type in all cases: biochemical
# HDAC6 = biological target: T1, HDAC6 (Homo sapiens, UniProt Q9UBN7); test: HDAC6 inhibition, full IC50 measurement (Reaction Biology; fluorogenic p53 peptide RHKK(Ac)AMC)
# T1 construct: purchased Reaction Biology Corporation (assay run by the CRO)
# T1 sequence (Q9UBN7 1-1215): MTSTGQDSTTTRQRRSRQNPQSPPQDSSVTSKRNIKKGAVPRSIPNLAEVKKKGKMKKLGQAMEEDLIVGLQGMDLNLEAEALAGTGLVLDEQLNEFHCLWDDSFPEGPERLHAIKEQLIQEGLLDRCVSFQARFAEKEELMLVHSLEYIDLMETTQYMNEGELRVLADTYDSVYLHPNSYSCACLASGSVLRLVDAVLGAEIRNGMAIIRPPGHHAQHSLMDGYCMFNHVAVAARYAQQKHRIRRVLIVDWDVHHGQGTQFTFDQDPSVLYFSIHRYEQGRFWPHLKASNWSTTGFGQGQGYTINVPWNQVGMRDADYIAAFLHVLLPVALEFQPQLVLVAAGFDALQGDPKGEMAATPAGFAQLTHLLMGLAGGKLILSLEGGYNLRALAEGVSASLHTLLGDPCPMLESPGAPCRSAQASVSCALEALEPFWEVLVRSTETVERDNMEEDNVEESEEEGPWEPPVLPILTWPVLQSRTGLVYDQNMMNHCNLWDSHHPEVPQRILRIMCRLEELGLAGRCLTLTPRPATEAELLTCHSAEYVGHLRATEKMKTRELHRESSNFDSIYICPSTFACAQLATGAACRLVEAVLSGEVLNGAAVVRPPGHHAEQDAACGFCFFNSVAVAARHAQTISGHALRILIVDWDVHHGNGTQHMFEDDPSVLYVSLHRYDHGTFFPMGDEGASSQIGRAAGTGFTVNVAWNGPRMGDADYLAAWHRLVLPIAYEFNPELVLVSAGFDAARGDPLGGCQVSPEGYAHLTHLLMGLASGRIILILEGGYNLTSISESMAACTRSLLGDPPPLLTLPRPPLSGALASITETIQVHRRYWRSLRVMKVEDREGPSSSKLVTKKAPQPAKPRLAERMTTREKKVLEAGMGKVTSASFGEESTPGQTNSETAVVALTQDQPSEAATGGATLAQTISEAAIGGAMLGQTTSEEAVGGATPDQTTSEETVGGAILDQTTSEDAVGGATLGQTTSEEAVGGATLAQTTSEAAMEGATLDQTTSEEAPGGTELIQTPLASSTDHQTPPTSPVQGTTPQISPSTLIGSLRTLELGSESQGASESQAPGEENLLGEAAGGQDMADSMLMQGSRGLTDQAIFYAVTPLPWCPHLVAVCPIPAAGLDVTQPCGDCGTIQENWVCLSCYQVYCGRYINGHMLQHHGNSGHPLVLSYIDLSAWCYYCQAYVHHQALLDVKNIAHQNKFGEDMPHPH
# Procedure, shortened: (§1)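 Reaction: enzyme plus acoustically dispensed peptide inhibitor, 50 μM RHKK(Ac)AMC substrate, pH 8.0 Tris buffer with BSA and 1% DMSO, 1 h, 30 °C. Duplicates averaged.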
# HDAC3 = biological target: T2, HDAC3 (Homo sapiens, UniProt O15379); test: HDAC3 inhibition, full IC50 measurement (Reaction Biology; fluorogenic p53 peptide RHKK(Ac)AMC)
# T2 construct: purchased Reaction Biology Corporation (assay run by the CRO)
# Procedure, shortened: as §1
# HDAC8 = biological target: T3, HDAC8 (Homo sapiens, UniProt Q9BY41); test: HDAC8 inhibition, full IC50 measurement (Reaction Biology; fluorogenic p53 peptide RHKK(Ac)AMC); details: for HDAC8 activity raw data (signal): t1/t2 replicates
# T3 construct: purchased Reaction Biology Corporation (assay run by the CRO)
# T3 sequence (Q9BY41 1-377): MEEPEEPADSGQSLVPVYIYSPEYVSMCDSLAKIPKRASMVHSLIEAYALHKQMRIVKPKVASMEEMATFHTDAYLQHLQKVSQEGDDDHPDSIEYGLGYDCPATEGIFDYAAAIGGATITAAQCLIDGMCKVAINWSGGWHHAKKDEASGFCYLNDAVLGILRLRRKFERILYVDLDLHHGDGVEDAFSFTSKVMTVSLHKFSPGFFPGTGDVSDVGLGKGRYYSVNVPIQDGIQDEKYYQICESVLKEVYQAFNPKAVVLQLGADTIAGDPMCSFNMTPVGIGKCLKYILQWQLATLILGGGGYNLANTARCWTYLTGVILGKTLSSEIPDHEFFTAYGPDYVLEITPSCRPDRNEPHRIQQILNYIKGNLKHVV
# Description: The assay was performed using 50 μM fluorogenic peptide from p53 residues 379-382 [RHKK(Ac)AMC] in a base reaction buffer of 50 mM Tris-HCl at pH 8.0, 137 mM NaCl, 2.7 mM KCl, 1 mM MgCl2, and freshly added 1 mg/ml BSA and 1% DMSO. Peptides were first dissolved in DMSO and then added to the reaction mixture with the enzyme using acoustic technique, enough to reach the desired concentration for that assay point. Peptide concentrations were calculated based on mass of lyophilized peptide and its molecular weight. The substrate was then added and incubated for 1 hour at 30 °C in a sealed container. After the incubation, developer was added to stop the reaction and develop color. Kinetic measurements were then performed for 20 min with Envision with 5 min intervals (Ex/Em = 360/460 nm). The endpoint after plateau was taken for IC50 measurement.
# In cases where duplicate measures are used, average data is reported in the main text or Supplementary Tables.
# T2 sequence (O15379 whole entry): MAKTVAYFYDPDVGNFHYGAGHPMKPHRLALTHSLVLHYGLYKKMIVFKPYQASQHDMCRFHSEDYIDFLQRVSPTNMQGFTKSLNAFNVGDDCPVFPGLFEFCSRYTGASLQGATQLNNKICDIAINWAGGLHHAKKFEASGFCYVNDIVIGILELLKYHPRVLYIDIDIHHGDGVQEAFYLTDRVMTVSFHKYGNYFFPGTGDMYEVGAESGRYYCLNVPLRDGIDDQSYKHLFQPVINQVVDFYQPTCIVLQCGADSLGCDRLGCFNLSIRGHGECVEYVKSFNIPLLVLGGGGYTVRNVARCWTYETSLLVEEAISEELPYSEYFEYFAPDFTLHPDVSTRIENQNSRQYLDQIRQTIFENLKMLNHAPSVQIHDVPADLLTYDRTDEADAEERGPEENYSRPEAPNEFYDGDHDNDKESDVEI
# T2 sequence (Q9Y618 395-489 partner limits assumed): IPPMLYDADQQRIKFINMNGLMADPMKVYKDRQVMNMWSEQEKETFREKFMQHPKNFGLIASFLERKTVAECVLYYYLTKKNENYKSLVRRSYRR
smiles,measurement,setting,value
"CC(C)[C@@H]1NC(=O)[C@H](CCCNC(=N)N)NC(=O)[C@@H](CC(=O)O)NC(=O)[C@H](CO)NC(=O)[C@@H](CO)NC(=O)[C@@H](CCC(=O)O)NC(=O)[C@H](Cc2ccc(O)cc2)NC(=O)[C@H](CCCCCS)NC1=O [des4.2.0, SHA-Tyr-dGlu-dSer-Ser-dAsp-Arg-Val] (HELM PEPTIDE1{R.V.[O=C([C@H](CCCCCS)N[*:1])[*:2]].Y.[dE].[dS].S.[dD]}$PEPTIDE1,PEPTIDE1,1:R1-8:R2$$$V2.0)",HDAC6 activity raw data (signal),"HDAC6; Conc. 1.00E-05 M, t1",-7055
same,HDAC6 activity raw data (signal),"HDAC6; Conc. 1.00E-05 M, t2",-3082
same,HDAC6 activity raw data (signal),"HDAC6; Conc. 1.11E-06 M, t1",103285
same,HDAC6 activity raw data (signal),"HDAC6; Conc. 1.11E-06 M, t2",106610
same,HDAC6 activity raw data (signal),"HDAC6; Conc. 1.23E-07 M, t1",299609
same,HDAC6 activity raw data (signal),"HDAC6; Conc. 1.23E-07 M, t2",290391
same,HDAC6 activity raw data (signal),"HDAC6; Conc. 1.37E-08 M, t1",820280
same,HDAC6 activity raw data (signal),"HDAC6; Conc. 1.37E-08 M, t2",820159
same,HDAC6 activity raw data (signal),"HDAC6; Conc. 1.52E-09 M, t1",1558048
same,HDAC6 activity raw data (signal),"HDAC6; Conc. 1.52E-09 M, t2",1527304
same,HDAC6 activity raw data (signal),"HDAC6; Conc. 3.33E-06 M, t1",43007
same,HDAC6 activity raw data (signal),"HDAC6; Conc. 3.33E-06 M, t2",45218
same,HDAC6 activity raw data (signal),"HDAC6; Conc. 3.70E-07 M, t1",181567
same,HDAC6 activity raw data (signal),"HDAC6; Conc. 3.70E-07 M, t2",190636
same,HDAC6 activity raw data (signal),"HDAC6; Conc. 4.12E-08 M, t1",459108
same,HDAC6 activity raw data (signal),"HDAC6; Conc. 4.12E-08 M, t2",432840
same,HDAC6 activity raw data (signal),"HDAC6; Conc. 4.57E-09 M, t1",1111578
same,HDAC6 activity raw data (signal),"HDAC6; Conc. 4.57E-09 M, t2",1107939
same,HDAC6 activity raw data (signal),"HDAC6; Conc. 5.08E-10 M, t1",1904356
same,HDAC6 activity raw data (signal),"HDAC6; Conc. 5.08E-10 M, t2",1828745
same,selectivity for HDAC6 over HDAC8,HDAC6; Supp. Table 8,80 fold
same,selectivity for HDAC6 over HDACs1/2/3,HDAC6; Supp. Table 8,> 10 fold
same,IC50,"HDAC6; figure legends, Supp. Tables 1 and 8, read-out: HDAC6 IC50",4.4 nM
same,HDAC3 activity raw data (signal),"HDAC3; Conc. 1.00E-05 M, t1",26422
same,HDAC3 activity raw data (signal),"HDAC3; Conc. 1.00E-05 M, t2",22359
same,HDAC3 activity raw data (signal),"HDAC3; Conc. 1.11E-06 M, t1",160928
same,HDAC3 activity raw data (signal),"HDAC3; Conc. 1.11E-06 M, t2",163740
same,HDAC3 activity raw data (signal),"HDAC3; Conc. 1.23E-07 M, t1",525206
same,HDAC3 activity raw data (signal),"HDAC3; Conc. 1.23E-07 M, t2",581691
same,HDAC3 activity raw data (signal),"HDAC3; Conc. 1.37E-08 M, t1",1076943
same,HDAC3 activity raw data (signal),"HDAC3; Conc. 1.37E-08 M, t2",1111273
same,HDAC3 activity raw data (signal),"HDAC3; Conc. 1.52E-09 M, t1",1186064
same,HDAC3 activity raw data (signal),"HDAC3; Conc. 1.52E-09 M, t2",1359852
same,HDAC3 activity raw data (signal),"HDAC3; Conc. 3.33E-06 M, t1",71800
same,HDAC3 activity raw data (signal),"HDAC3; Conc. 3.33E-06 M, t2",63219
same,HDAC3 activity raw data (signal),"HDAC3; Conc. 3.70E-07 M, t1",296381
same,HDAC3 activity raw data (signal),"HDAC3; Conc. 3.70E-07 M, t2",296142
same,HDAC3 activity raw data (signal),"HDAC3; Conc. 4.12E-08 M, t1",806773
same,HDAC3 activity raw data (signal),"HDAC3; Conc. 4.12E-08 M, t2",863981
same,HDAC3 activity raw data (signal),"HDAC3; Conc. 4.57E-09 M, t1",1182733
same,HDAC3 activity raw data (signal),"HDAC3; Conc. 4.57E-09 M, t2",1313514
same,HDAC3 activity raw data (signal),"HDAC3; Conc. 5.08E-10 M, t1",1345816
same,HDAC3 activity raw data (signal),"HDAC3; Conc. 5.08E-10 M, t2",1394913
same,IC50,HDAC3; Supp. Table 1,71.2 nM
same,IC50,HDAC8; Supp. Table 1,370 nM
same,HDAC8 activity raw data (signal),"HDAC8; peptide conc. 1.00E-05 M, listed as des4.2.0_t1",92279
same,HDAC8 activity raw data (signal),"HDAC8; peptide conc. 1.00E-05 M, listed as des4.2.0_t2",81671
same,HDAC8 activity raw data (signal),"HDAC8; peptide conc. 1.11E-06 M, listed as des4.2.0_t1",396585
same,HDAC8 activity raw data (signal),"HDAC8; peptide conc. 1.11E-06 M, listed as des4.2.0_t2",434279
same,HDAC8 activity raw data (signal),"HDAC8; peptide conc. 1.23E-07 M, listed as des4.2.0_t1",727023
same,HDAC8 activity raw data (signal),"HDAC8; peptide conc. 1.23E-07 M, listed as des4.2.0_t2",752193
same,HDAC8 activity raw data (signal),"HDAC8; peptide conc. 1.37E-08 M, listed as des4.2.0_t1",1107635
same,HDAC8 activity raw data (signal),"HDAC8; peptide conc. 1.37E-08 M, listed as des4.2.0_t2",1031405
same,HDAC8 activity raw data (signal),"HDAC8; peptide conc. 1.52E-09 M, listed as des4.2.0_t1",1115979
same,HDAC8 activity raw data (signal),"HDAC8; peptide conc. 1.52E-09 M, listed as des4.2.0_t2",1078250
same,HDAC8 activity raw data (signal),"HDAC8; peptide conc. 3.33E-06 M, listed as des4.2.0_t1",190039
same,HDAC8 activity raw data (signal),"HDAC8; peptide conc. 3.33E-06 M, listed as des4.2.0_t2",213758
same,HDAC8 activity raw data (signal),"HDAC8; peptide conc. 3.70E-07 M, listed as des4.2.0_t1",540901
same,HDAC8 activity raw data (signal),"HDAC8; peptide conc. 3.70E-07 M, listed as des4.2.0_t2",562035
same,HDAC8 activity raw data (signal),"HDAC8; peptide conc. 4.12E-08 M, listed as des4.2.0_t1",828599
same,HDAC8 activity raw data (signal),"HDAC8; peptide conc. 4.12E-08 M, listed as des4.2.0_t2",842494
same,HDAC8 activity raw data (signal),"HDAC8; peptide conc. 4.57E-09 M, listed as des4.2.0_t1",599790
same,HDAC8 activity raw data (signal),"HDAC8; peptide conc. 4.57E-09 M, listed as des4.2.0_t2",1026390
same,HDAC8 activity raw data (signal),"HDAC8; peptide conc. 5.08E-10 M, listed as des4.2.0_t1",1085628
same,HDAC8 activity raw data (signal),"HDAC8; peptide conc. 5.08E-10 M, listed as des4.2.0_t2",1128546
